Results on 34 molecules are retold here after PubChem BioAssay AID651650 (Sanford-Burnham Center for Chemical Genomics, 2012).

pIC50: −log10 of the molar value. The source made the active and inactive calls.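 The calls were made as follows: active = mean IC50 below 20 µM in each of the two panels, so potent in both; inactive = the rest.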 Some results are limits rather than exact numbers.

This assay addresses Neuropilin-1 (Homo sapiens) (UniProt O14786). Put plainly: NRP-1 b1b2 CendR peptide binding inhibitors, dose response, biochemical, FP and AlphaScreen panel (AID 651650). To be noted: NRP-1 b1b2 / RPARPAR peptide binding, FP or AlphaScreen. Background: In Alpha technology, singlet oxygen from a donor bead excites a nearby acceptor bead.
[1] abbreviates: AlphaScreen, run 1, individual panel run IC50.
The mark [2] stands for this setting: FP, run 1, individual panel run IC50.
The mark [3] stands for this setting: FP, run 2, individual panel run IC50.

Sequence of Neuropilin-1 (Homo sapiens) (O14786 whole entry, looked up): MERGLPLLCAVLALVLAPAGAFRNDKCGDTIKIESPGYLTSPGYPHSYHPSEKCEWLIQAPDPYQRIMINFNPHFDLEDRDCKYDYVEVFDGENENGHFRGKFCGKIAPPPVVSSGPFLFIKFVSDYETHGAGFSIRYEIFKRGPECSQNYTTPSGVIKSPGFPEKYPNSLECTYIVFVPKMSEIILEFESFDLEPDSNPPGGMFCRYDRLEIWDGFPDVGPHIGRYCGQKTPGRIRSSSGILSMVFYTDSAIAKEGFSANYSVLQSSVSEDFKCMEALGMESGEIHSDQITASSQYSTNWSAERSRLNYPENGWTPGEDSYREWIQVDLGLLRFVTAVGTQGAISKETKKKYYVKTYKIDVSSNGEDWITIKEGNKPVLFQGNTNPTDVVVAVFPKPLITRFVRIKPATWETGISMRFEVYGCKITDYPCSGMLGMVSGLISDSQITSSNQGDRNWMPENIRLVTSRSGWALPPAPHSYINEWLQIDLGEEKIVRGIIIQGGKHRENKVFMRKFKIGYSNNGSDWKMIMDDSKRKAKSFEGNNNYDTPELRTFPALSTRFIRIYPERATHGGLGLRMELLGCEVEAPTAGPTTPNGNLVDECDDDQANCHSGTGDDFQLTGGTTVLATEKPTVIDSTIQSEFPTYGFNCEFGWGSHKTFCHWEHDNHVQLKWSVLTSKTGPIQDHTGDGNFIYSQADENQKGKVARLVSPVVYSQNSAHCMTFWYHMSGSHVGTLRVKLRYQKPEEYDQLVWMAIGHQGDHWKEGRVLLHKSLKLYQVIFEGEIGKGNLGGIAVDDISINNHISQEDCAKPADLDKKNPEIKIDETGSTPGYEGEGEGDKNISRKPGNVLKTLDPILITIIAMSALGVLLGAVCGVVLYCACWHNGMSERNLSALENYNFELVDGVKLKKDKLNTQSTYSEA

As a reminder, the IC50 is the point on the concentration scale where inhibition reaches its midpoint. In general, pIC50 refers to −log10 of the IC50, conventionally taken in molar units. On to `CCc1ccc(C2CC(=O)N(c3cccc(F)c3)C3=C2C(=O)OC3)cc1` (stereo not given), for which the IC50 is, setting by setting: (AlphaScreen, mean of runs) > 100 µM (inactive); (FP, mean of runs) > 95 µM (inactive). Further, the pIC50 is under 4.00 under setting [1], under 4.02 under setting [2] and under 4.02 under setting [3].
Consider `CC(=O)Nc1cc(F)c2c(c1F)Cc1cc(F)ccc1-2`, for which the IC50 result (AlphaScreen, mean of runs) was “inactive”. Besides, the pIC50 reads like this: under setting [1], 4.05; under setting [2], under 4.02; under setting [3], under 4.02. In addition, under “FP, mean of runs”, the IC50 was > 95 µM (inactive).
Turning to `COc1ccc(-c2noc(CN(C(=O)c3ccc4c(c3)OCO4)C(C)C)n2)cc1`, the IC50 runs as follows: (AlphaScreen, mean of runs) > 100 µM (inactive); (FP, mean of runs) > 95 µM (inactive). The same molecule gave a negative logarithm of the IC50 (pIC50) under setting [1] of under 4.00, a pIC50 under setting [2] of under 4.02 and a pIC50 under setting [3] of under 4.02.
As for `C[C@@H](C(=O)Nc1cccnc1)n1c(=O)[nH]c2ccccc2c1=O`, the IC50 is, setting by setting: (AlphaScreen, mean of runs) > 100 µM (inactive); (FP, mean of runs) > 95 µM (inactive). The pIC50 runs as follows: under setting [1], under 4.00; under setting [2], under 4.02; under setting [3], under 4.02.
Turning to `CCN(CC(=O)NCc1cccs1)S(=O)(=O)c1ccc(C(C)C)cc1`, the IC50 is > 100 µM (inactive) (AlphaScreen, mean of runs) and > 95 µM (inactive) (FP, mean of runs). The pIC50 under setting [1] is under 4.00, the pIC50 under setting [2] was under 4.02 and the pIC50 under setting [3] is under 4.02.
As to `Cc1cc(C)n2c(SCC(=O)Nc3cccc(S(N)(=O)=O)c3)nnc2n1`, the IC50 is, setting by setting: (AlphaScreen, mean of runs) > 100 µM (inactive); (FP, mean of runs) > 95 µM (inactive). In addition, the pIC50 reads like this: under setting [1], under 4.00; under setting [2], under 4.02; under setting [3], under 4.02.
Consider `C=CCOc1c(CNc2ncn[nH]2)cccc1OCC`, for which the IC50 (AlphaScreen, mean of runs) was > 100 µM (inactive). Further, the pIC50 under setting [1] was under 4.00; the pIC50 (FP, mean of runs) is 5.00; the pIC50 under setting [2] was 5.00; the pIC50 under setting [3] is under 4.02.
Regarding `CCOC(=O)c1ccc(NC(=O)CN2CCc3ccccc3C2)cc1`, the IC50 reads like this: (AlphaScreen, mean of runs) > 100 µM (inactive); (FP, mean of runs) > 95 µM (inactive). Moreover, the pIC50 was under 4.00 under setting [1], under 4.02 under setting [2] and under 4.02 under setting [3].
As to `CSc1cccc(CN2CCN(Cc3ccccc3)C(CCO)C2)c1` (stereo not given), the IC50 is, setting by setting: (AlphaScreen, mean of runs) > 100 µM (inactive); (FP, mean of runs) > 95 µM (inactive). Moreover, the pIC50 runs as follows: under setting [1], under 4.00; under setting [2], under 4.02; under setting [3], under 4.02.
For `O=C(COc1ccc(S(=O)(=O)N2CCCC2)cc1)Nc1ccc2c(c1)OCCO2`, the IC50 is, setting by setting: (AlphaScreen, mean of runs) > 100 µM (inactive); (FP, mean of runs) > 95 µM (inactive). The molecule further had a pIC50 under setting [1] of under 4.00, a pIC50 under setting [2] of under 4.02 and a pIC50 under setting [3] of under 4.02.
As for `COc1ccc(Cl)cc1NC(=O)C(C)N1CCc2ccccc21` (stereo not given), the IC50 entry reads like this: (AlphaScreen, mean of runs) “inactive”; (FP, mean of runs) “inactive”. For the same molecule, the pIC50 runs as follows: under setting [1], 4.34; under setting [2], 4.30; under setting [3], 4.52.
Turning to `CN1CCC(=NNC(=O)c2ccco2)CC1`, the IC50 is > 100 µM (inactive) (AlphaScreen, mean of runs) and > 95 µM (inactive) (FP, mean of runs). Also, the pIC50 reads like this: under setting [1], under 4.00; under setting [2], under 4.02; under setting [3], under 4.02.
For the molecule `O=[N+]([O-])c1ccc(Cc2ccncc2)cc1`, the IC50 was > 100 µM (inactive) (AlphaScreen, mean of runs) and > 95 µM (inactive) (FP, mean of runs). For the same molecule, the pIC50 is under 4.00 under setting [1], under 4.02 under setting [2] and under 4.02 under setting [3].
Turning to `COC(=O)C1=C(C)NC(C)=C(C(=O)OC)C1C(=O)OC(C)C(=O)c1ccccc1` (stereo not given), the IC50 (AlphaScreen, mean of runs) is > 100 µM (inactive) and the IC50 (FP, mean of runs) was > 95 µM (inactive). Besides, the pIC50 is, setting by setting: under setting [1], under 4.00; under setting [2], under 4.02; under setting [3], under 4.02.
Take `O=C(O)CCSc1nnc(COc2cccc3cccnc23)n1-c1ccccc1`: the IC50 is > 100 µM (inactive) (AlphaScreen, mean of runs) and > 95 µM (inactive) (FP, mean of runs). For the same molecule, the pIC50 is, setting by setting: under setting [1], under 4.00; under setting [2], under 4.02; under setting [3], under 4.02.
`Cc1ccccc1NC(=O)c1cccc(NC(=O)CCC(=O)O)c1`: the IC50 was > 100 µM (inactive) (AlphaScreen, mean of runs) and > 95 µM (inactive) (FP, mean of runs). The molecule further gave a pIC50 under setting [1] of under 4.00, a pIC50 under setting [2] of under 4.02 and a negative logarithm of the IC50 (pIC50) under setting [3] of under 4.02.
Consider `Cc1ccc(Cl)c(NC(=O)CSc2cccc[n+]2[O-])c1Cl`, for which the IC50 by setting is: (AlphaScreen, mean of runs) > 100 µM (inactive); (FP, mean of runs) > 95 µM (inactive). Also, the pIC50 by setting is: under setting [1], under 4.00; under setting [2], under 4.02; under setting [3], under 4.02.
Turning to `Cc1ccc(COn2c(-c3ccc(Cl)cc3Cl)nc3ncccc32)cc1`, the IC50 by setting is: (AlphaScreen, mean of runs) > 100 µM (inactive); (FP, mean of runs) > 95 µM (inactive). This molecule also showed a pIC50 under setting [1] of under 4.00, a pIC50 under setting [2] of under 4.02 and a negative logarithm of the IC50 (pIC50) under setting [3] of under 4.02.
Take `CCC1=C(OC(=O)N(CC)CC)N2C(=O)OC(=NCC3CC3)[C@]2(Cc2ccccc2)[C@H]2C1=CC[C@H]1C(=O)N(C)C(=O)[C@H]12`: the IC50 by setting is: (AlphaScreen, mean of runs) > 100 µM (inactive); (FP, mean of runs) > 95 µM (inactive). The pIC50 by setting is: under setting [1], under 4.00; under setting [2], under 4.02; under setting [3], under 4.02.
Consider `CCC1=C(OC(=O)N(CC)CC)N2C(=O)OC(=NCCOC)[C@]2(Cc2ccccc2)[C@H]2C1=CC[C@H]1C(=O)N(CC(=O)OC)C(=O)[C@H]12`, for which the IC50 reads like this: (AlphaScreen, mean of runs) > 100 µM (inactive); (FP, mean of runs) > 95 µM (inactive). The pIC50 is, setting by setting: under setting [1], under 4.00; under setting [2], under 4.02; under setting [3], under 4.02.
For `O=C1CCCN1CCCNC(=S)Nc1ccc(Cl)cc1Cl`, the IC50 (AlphaScreen, mean of runs) is > 100 µM (inactive) and the IC50 (FP, mean of runs) was > 95 µM (inactive). In addition, the pIC50 runs as follows: under setting [1], under 4.00; under setting [2], under 4.02; under setting [3], under 4.02.
As to `CCC1Nc2ncnc(N3CCCCC3)c2N(Cc2ccc(C)cc2)C1=O` (stereo not given), the IC50 is, setting by setting: (AlphaScreen, mean of runs) > 100 µM (inactive); (FP, mean of runs) > 95 µM (inactive). The pIC50 was under 4.00 under setting [1], under 4.02 under setting [2] and under 4.02 under setting [3].
Consider `O=C(O)c1cc(NCc2ccc(F)cc2)ccc1N1CCOCC1`, for which the IC50 (AlphaScreen, mean of runs) is > 100 µM (inactive) and the IC50 (FP, mean of runs) is > 95 µM (inactive). The pIC50 under setting [1] is under 4.00, the pIC50 under setting [2] was under 4.02 and the pIC50 under setting [3] is under 4.02.
For the molecule `CNC(=O)Nc1ccccc1C(=O)NCc1ccccc1`, the IC50 is, setting by setting: (AlphaScreen, mean of runs) > 100 µM (inactive); (FP, mean of runs) > 95 µM (inactive). This molecule also showed a pIC50 under setting [1] of under 4.00, a pIC50 under setting [2] of under 4.02 and a pIC50 under setting [3] of under 4.02.
In the case of `COc1ccc(C(O)c2nc(-c3ccc4ccccc4c3)cs2)cc1` (stereo not given), the IC50 reads like this: (AlphaScreen, mean of runs) > 100 µM (inactive); (FP, mean of runs) > 95 µM (inactive). Moreover, the pIC50 is under 4.00 under setting [1], under 4.02 under setting [2] and under 4.02 under setting [3].
On to `Cc1ccc(C)c(-n2c(SCC(=O)NC(C(=O)O)C(C)C)nnc2-c2cccc(Cl)c2)c1` (stereo not given), for which the IC50 runs as follows: (AlphaScreen, mean of runs) > 100 µM (inactive); (FP, mean of runs) > 95 µM (inactive). Besides, the pIC50 is, setting by setting: under setting [1], under 4.00; under setting [2], under 4.02; under setting [3], under 4.02.
Turning to `CCc1cccc(NC(=O)CCc2c(C)nn(-c3ccc(N4CCOCC4)nn3)c2C)c1`, for the setting “AlphaScreen, mean of runs”, the IC50 result was “inactive”. The pIC50 is 4.40 under setting [1], under 4.02 under setting [2] and under 4.02 under setting [3]. Also, under “FP, mean of runs”, the IC50 was > 95 µM (inactive).
Take `C=C[C@]12CC[C@H](OC(C)=O)CC1=CCC1C2CC[C@@]2(C)C1CCC21OCCO1` (stereo not given in full): the IC50 was > 100 µM (inactive) (AlphaScreen, mean of runs) and > 95 µM (inactive) (FP, mean of runs). In addition, the pIC50 is under 4.00 under setting [1], under 4.02 under setting [2] and under 4.02 under setting [3].
Regarding `Cc1ccsc1C(=O)N1CCCC(CO)(Cc2ccccc2F)C1` (stereo not given), the IC50 (AlphaScreen, mean of runs) is > 100 µM (inactive) and the IC50 (FP, mean of runs) is > 95 µM (inactive). For the same molecule, the pIC50 runs as follows: under setting [1], under 4.00; under setting [2], under 4.02; under setting [3], under 4.02.
Turning to `O=C1CSC(c2cn(-c3ccccc3)nc2-c2cccs2)N1CC1CCCO1` (stereo not given), the IC50 entry (AlphaScreen, mean of runs) was “inactive”. In addition, the pIC50 is, setting by setting: under setting [1], 4.35; under setting [2], under 4.02; under setting [3], under 4.02. Further, where the note is “FP, mean of runs”, the IC50 was > 95 µM (inactive).
Take `CC(Oc1ccccc1)C(=O)NC1=NCCS1` (stereo not given): the IC50 is > 100 µM (inactive) (AlphaScreen, mean of runs) and > 95 µM (inactive) (FP, mean of runs). Also, the pIC50 reads like this: under setting [1], under 4.00; under setting [2], under 4.02; under setting [3], under 4.02.
As to `O=c1oc(Nc2ccccc2F)nc2ccccc12`, the IC50 is, setting by setting: (AlphaScreen, mean of runs) > 100 µM (inactive); (FP, mean of runs) > 95 µM (inactive). For the same molecule, the pIC50 is under 4.00 under setting [1], under 4.02 under setting [2] and under 4.02 under setting [3].
For the molecule `COC(=O)Cc1ccc(NC(=S)NCCCO)cc1`, the IC50 reads like this: (AlphaScreen, mean of runs) > 100 µM (inactive); (FP, mean of runs) > 95 µM (inactive). In addition, the pIC50 is, setting by setting: under setting [1], under 4.00; under setting [2], under 4.02; under setting [3], under 4.02.
Consider `O=S1(=O)CCOC[C@H](Cc2ccccc2)N1Cc1ccccc1F`, for which the IC50 was > 100 µM (inactive) (AlphaScreen, mean of runs) and > 95 µM (inactive) (FP, mean of runs). The molecule further showed a pIC50 under setting [1] of under 4.00, a pIC50 under setting [2] of under 4.02 and a pIC50 under setting [3] of under 4.02.
